Assay results as given in patent publication US20090117200A1, “Fungicide Composition Comprising a Phosphorous Acid Derivative, a Mandelamide Type Compound and a Further Fungicide Compound” (priority 2005, published 2009).

Assays:
Plasmopara viticola [1] = assay: Example 4: preventive 72 h application on vine downy mildew, phosphorous acid / mandipropamid / mefenoxam, TAMMES analysis; format: in vivo
Method: (§1) Vine plants (variety Cabernet Sauvignon) were grown in a sandy soil in plastic pots with a single plant per pot.
(§2) Four days before treatment, phosphorous acid was applied at 1,500 g a.i./ha on plants planned to be treated later with phosphorous acid based product alone or in mixture.
(§3) A three days interval separated treatment and inoculation. Three days after the treatment, each plant was inoculated by spraying an aqueous suspension of sporangia of Plasmopara viticola obtained from infected leaves and sensitive to all the tested compounds. The concentration of sporangia was about 100,000 units per ml.
(§4) After contamination the plants were incubated for 7 days at 22° C. in a saturated atmosphere. Seven days after contamination, symptoms were evaluated in terms of the extent of the lower surface of the leaves infected, in comparison with untreated (UTC) but contamined plants.
(§5) The efficacy of the treatment was calculated using the Abbott formula:
(§6) efficacy=(untreated−treated/untreated)×100
(§7) The concentrations of the fungicide active substances alone or in mixture giving % efficacy for each component were determined based on the sigmoid curve dose/response model with their confidence intervals. The analysis of the results was made according to the TAMMES model (Isoboles, a graphic representation of synergism in pesticides, Neth. J. Plant Path. 70 (1964): 73-80).

Plasmopara viticola [2] = assay: Example 3: preventive 72 h application on vine downy mildew, phosphorous acid / mandipropamid / folpet, TAMMES analysis; format: in vivo
Method: as §1
The following ratio was tested: phosphorous acid (A)/mandipropamid (B)/folpet (C) respectively: 1,500 g a.i./ha+75 g a.i./ha+750 g a.i./ha (ratio 20/1/10).
The dose range tested for phosphorous acid equivalent (329 g/kg) was: 3,000 g a.i./ha, 1,500 g a.i./ha, 1,000 g a.i./ha, 750 g a.i./ha, 500 g a.i./ha, 250 g a.i./ha, 80 g a.i./ha, 40 g a.i./ha, 20 g a.i./ha, 10 g a.i./ha, 2 g a.i./ha and 0.2 g a.i./ha.
The dose range for mandipropamid+folpet was: 75+750 g a.i./ha, 4+40 g a.i./ha, 2+20 g a.i./ha, 1+10 g a.i./ha, 0.5+5 g a.i./ha, 0.1+1 g a.i./ha and 0.01+0.1 g a.i./ha.
For the ternary mixture phosphorous acid equivalent+mandipropamid+folpet, the dose range studied was: 1,500+75+750 g a.i./ha, 80+4+40 g a.i./ha, 40+2+20 g a.i./ha, 20+1+10 g a.i./ha, 10+0.5+5 g a.i./ha, 2+0.1+1 g a.i./ha and 0.2+0.01+0.1 g a.i./ha.
as §2, §3, §4, §5, §6, §7

[3] = sum of the components, or dose of the single compound, vine, preventive 72 h

SMILES: OP(O)O [phosphorous acid]
- ED70 (Plasmopara viticola [1]; Table 2 of Example 4: practical 70% of disease control observed): 650 g a.i./ha
- ED90 (Plasmopara viticola [1]; Table 2 of Example 4: practical 90% of disease control observed): 1,500 g a.i./ha
- ED70 (Plasmopara viticola [2]; Table 2 of Example 3: calculated according to efficacy observed, 70% of disease control): 6.2 g a.i./ha
- ED90 (Plasmopara viticola [2]; Table 2 of Example 3: calculated according to efficacy observed, 90% of disease control): 145 g a.i./ha
- Practical dose for 70% efficacy, total (Plasmopara viticola [2]; [3]): 6.2 g a.i./ha
- Practical dose for 90% efficacy, total (Plasmopara viticola [2]; [3]): 145 g a.i./ha
